Measurements: patent US6133292A, “Diaryl-5-alkyl-5-methyl-2-(5H)-furanones as selective cyclooxygenase-2-inhibitors” (Merck Frosst Canada & Co., priority 1998, dated 2000)

Legend:
COX-1 [1] = target: T1, COX-1 (Homo sapiens, UniProt P23219); assay: Assay of COX-1 activity from U937 cell microsomes; assay type: biochemical; design: Assay of COX-1 Activity from U937 cell microsomes; endogenous in cells; host or cells: U937 cells, 100,000 x g microsomal fraction; settings: read-out: U937 Cox-1 (IC50, inhibition of PGE2 production)
Method: Assay of COX-1 Activity from U937 cell microsomes
U 937 cells are pelleted by centrifugation at 500 x g for 5 min and washed once with phosphate-buffered saline and repelleted. Cells are resuspended in homogenization buffer consisting of 0.1 M Tris-HCl, pH 7.4, 10 mM EDTA, 2 μg/ml leupeptin, 2 μg/ml soybean trypsin inhibitor, 2 μg/ml aprotinin and 1 mM phenyl methyl sulfonyl fluoride. The cell suspension is sonicated 4 times for 10 sec and is centrifuged at 10,000 x g for 10 min at 4° C. The supernatant is centrifuged at 100,000 x g for 1 hr at 4° C. The 100,000 x g microsomal pellet is resuspended in 0.1 M Tris-HCl, pH 7.4, 10 mM EDTA to approximately 7 mg protein/mil and stored at -80° C.
Microsomal preparations are thawed immediately prior to use, subjected to a brief sonication, and then diluted to a protein concentration of 125 μg/ml in 0.1 M Tris-HCl buffer, pH 7.4 containing 10 mM EDTA, 0.5 mM phenol, 1 mM reduced glutathione and 1 μM hematin. Assays are performed in duplicate in a final volume of 250 μl. Initially, 5 μl of DMSO vehicle or drug in DMSO are added to 20 μl of 0.1 M Tris-HCl buffer, pH 7.4 containing 10 mM EDTA in wells of a 96-deepwell polypropylene titre plate. 200 μl of the microsomal preparation are then added and pre-incubated for 15 min at room temperature before addition of 25 μl of […] arachidonic acid in […] Tris-HCl and 10 mM EDTA, pH 7.4. Samples are incubated for 40 min at room temperature and the reaction is stopped by the addition of 25 μl of 1 N HCl. Samples are neutralized with 25 μl of 1 N NaOH prior to quantitation of PGE2 content by radioimmunoassay (Dupont-NEN or Amersham assay kits). Cyclooxygenase activity is defined as the difference between PGE2 levels in samples incubated in the presence of arachidonic acid and ethanol vehicle.
(§1) Compounds of the present invention are inhibitors of COX-2 and are thereby useful in the treatment of COX-2 mediated diseases as enumerated above. The activities of the compounds against cyclooxygenase may be seen in the representative results shown below. In the assay, inhibition is determined by measuring the amount of prostaglandin E2 (PGE2) synthesized in the presence of arachidonic acid, COX-1 or COX-2 and a putative inhibitor. The IC50 values represent the concentration of putative inhibitor required to lower PGE2 synthesis to 50% of that obtained as compared to the uninhibited control.

COX-1 [2] = target: T1, COX-1; assay: Human whole blood assay, COX-1 (clotting-induced TxB2 production); assay type: cell-based; design: platelets in whole blood contain a large amount of the COX-1 enzyme; from tissue; host or cells: fresh human whole blood without anticoagulant, platelets; settings: clotting-induced TxB2, 1 hour at 37° C, read-out: HWB Cox-1 (IC50)
Method: (§2) Human whole blood provides a protein and cell-rich milieu appropriate for the study of biochemical efficacy of anti-inflammatory compounds such as selective COX-2 inhibitors. […] This is consistent with the observation that COX-2 inhibitors have no effect on PGE2 production in normal blood. These inhibitors are active only after incubation of human whole blood with LPS, which induces COX-2. This assay can be used to evaluate the inhibitory effect of selective COX-2 inhibitors on PGE2 production. As well, platelets in whole blood contain a large amount of the COX-1 enzyme. Immediately following blood clotting, platelets are activated through a thrombin-mediated mechanism. This reaction results in the production of thromboxane B2 (TXB2) via activation of COX-1. Thus, the effect of test compounds on TxB2 levels following blood clotting can be examined and used as an index for COX-1 activity. Therefore, the degree of selectivity by the test compound can be determined by measuring the levels of PGE2 after LPS induction (COX-2) and TxB2 following blood clotting (COX-1) in the same assay.
B. COX-1 (Clotting-induced TxB2 production)
Fresh blood is collected into vacutainers containing no anticoagulants. […] The tubes are vortexed and incubated at 37° C. for 1 hour to allow blood to clot. At the end of incubation, serum is obtained by centrifugation (12,000 x g for 5 min.). A 100 μL aliquot of serum is mixed with 400 μL of methanol for protein precipitation. The supernatant is obtained and is assayed for TxB2 using a enzyme immunoassay kit (Cayman, #519031) according to the manufacturer's instruction. […]

COX-2 = target: T2, COX-2 (Homo sapiens, UniProt P35354); assay: Human whole blood assay, COX-2 (LPS-induced PGE2 production); assay type: cell-based; design: incubation of human whole blood with LPS, which induces COX-2; from tissue; host or cells: fresh heparinized human whole blood from male and female volunteers, LPS-stimulated; settings: 24 hours at 37° C, read-out: HWB Cox-2 (IC50, inhibition of PGE2 production)
T2 sequence (P35354 18-604): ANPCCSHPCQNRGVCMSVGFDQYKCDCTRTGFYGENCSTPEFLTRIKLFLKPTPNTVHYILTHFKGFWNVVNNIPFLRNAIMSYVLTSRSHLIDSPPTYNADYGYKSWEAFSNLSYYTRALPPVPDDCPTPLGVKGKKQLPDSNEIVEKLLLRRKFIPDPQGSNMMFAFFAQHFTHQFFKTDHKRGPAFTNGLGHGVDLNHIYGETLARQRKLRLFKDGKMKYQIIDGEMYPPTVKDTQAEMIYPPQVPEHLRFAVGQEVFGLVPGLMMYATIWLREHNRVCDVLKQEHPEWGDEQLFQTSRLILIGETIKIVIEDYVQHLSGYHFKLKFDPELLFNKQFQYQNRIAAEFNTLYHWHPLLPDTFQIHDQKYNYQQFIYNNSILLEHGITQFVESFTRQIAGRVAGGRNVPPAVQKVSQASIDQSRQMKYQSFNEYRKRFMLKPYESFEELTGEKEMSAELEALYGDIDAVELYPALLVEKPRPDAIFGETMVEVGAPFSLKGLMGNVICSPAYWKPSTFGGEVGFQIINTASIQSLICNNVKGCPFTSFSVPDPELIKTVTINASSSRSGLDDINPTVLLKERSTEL
Method: as §2
A. COX-2 (LPS-induced PGE9 production)
Fresh blood is collected in heparinized tubes by venipuncture from both male and female volunteers. The subjects have no apparent inflammatory conditions and have not taken any NSAIDs for at least 7 days prior to blood collection. Plasma is immediately obtained from a 2 mL blood aliquot to use as blank (basal levels of PGE2). The remaining blood is incubated with LPS (100 μg/ml final concentration, Sigma Chem, #L-2630 from E. coli; diluted in 0.1% BSA (Phosphate buffered saline) for 5 minutes at room temperature. Five hundred μL aliquots of blood are incubated with either 2 μL of vehicle (DMSO) or 2 μL of a test compound at final concentrations varying from 10 nM to 30 μM for 24 hours at 37° C. At the end of the incubation, the blood is centrifuged at 12,000 x g for 5 minutes to obtain plasma. A 100 μL aliquot of plasma is mixed with 400 μL of methanol for protein precipitation. The supernatant is obtained and is assayed for PGE2 using a radioimmunoassay kit (Amersham, RPA#530) after conversion of PGE2 to its methyl oximate derivative according to the manufacturer's procedure.
as §1

[3] = Pharmacokinetics in rats (half-life); assay type: in vivo, rat (male Sprague Dawley); settings: rat, blood, read-out: T 1/2 in Rats (converted)
From the text: Per Os Pharmacokinetics in Rats--Procedure:
The animals are housed, fed and cared for according to the Guidelines of the Canadian Council on Animal Care. Male Sprague Dawley rats (325-375 g) are fasted overnight prior to each PO blood level study. The rats are placed in the restrainer one at a time and the box firmly secured. The zero blood sample is obtained by nicking a small (1 mm or less) piece off the tip of the tail. The tail is then stroked with a firm but gentle motion from the top to the bottom to milk out the blood. Approximately 1 mL of blood is collected into a heparirnized vacutainer tube.
Compounds are prepared as required, in a standard dosing volume of 10 mL/kg, and administered orally by passing a 16 gauge, 3" gavaging needle into the stomach. Subsequent bleeds are taken in the same manner as the zero bleed except that there is no need to nick the tail again. The tail is cleaned with a piece of gauze and milked/stroked as described above into the appropriately labelled tubes.
Immediately after sampling, blood is centrifuged, separated, put into clearly marked vials and stored in a freezer until analysed. Typical time points for determination of rat blood levels after PO dosing are 0, 15 min, 30 min, 1 h, 2 h, 4 h, and 6 h.
After the 4 hr time point bleed, food is provided to the rats ad libitum. Water is provided at all times during the study.
The following vehicles may be used in PO rat blood level determinations:
Compounds for PO blood levels can be in suspension form. For better dissolution, the solution can be placed in a sonicator for approximately 5 minutes.
For analysis, aliquots are diluted with an equal volume of acetonitrile and centrifuged to remove protein precipitate. The supernatant is injected directly onto a C-18 HPLC column with UV detection. Quantitation is done relative to a clean blood sample spiked with a known quantity of drug.
Intravenous Pharmacokinetics in Rats--Procedure
The animals are housed, fed and cared for according to the Guidelines of the Canadian Council on Animal Care. Male Sprague Dawley (325-375 g) rats are placed in plastic shoe box cages with a suspended floor, cage top, water bottle and food. The compound is prepared as required, in a standard dosing volume of 1 mL/kg.
Rats are bled for the zero blood sample and dosed under CO2 sedation. The rats, one at a time, are placed in a primed CO2 chamber and taken out as soon as they have lost their righting reflex. The rat is then placed on a restraining board, a nose cone with CO2 delivery is placed over the muzzle and the rat restrained to the board with elastics. With the use of forceps and scissors, the jugular vein is exposed and the zero sample taken, followed by a measured dose of compound which is injected into the jugular vein. Light digital pressure is applied to the injection site, and the nose cone is removed. The time is noted. This constitutes the zero time point.
The 5 min bleed is taken by nicking a piece (1-2 mm) off the tip of the tail. The tail is then stroked with a firm but gentle motion from the top of the tail to the bottom to milk the blood out of the tail. Approximately 1 mL of blood is collected into a heparinized collection vial. Subsequent bleeds are taken in the same fashion, except that there is no need to nick the tail again. The tail is cleaned with a piece of gauze and bled, as described above, into the appropriate labelled tubes. Typical time points for determination of rat blood levels after I.V. dosing are either a) 0, 5 min, 15 min, 30 min, 1 h, 2 h, 6 h, or b) 0, 5 min, 30 min, 1 h, 2 h, 4 h, 6 h.
The following vehicles may be used in IV rat blood level determinations:
DMSO (dimethylsulfoxide): Restricted to a dose volume of 0.1 mL per animal
PEG 200: Not more than 60% mixed with 40% sterile water --1 mL/kg
With Dextrose, either sodium bicarbonate or sodium carbonate can be added if the solution is cloudy. […]

T1 sequence (P23219 24-599): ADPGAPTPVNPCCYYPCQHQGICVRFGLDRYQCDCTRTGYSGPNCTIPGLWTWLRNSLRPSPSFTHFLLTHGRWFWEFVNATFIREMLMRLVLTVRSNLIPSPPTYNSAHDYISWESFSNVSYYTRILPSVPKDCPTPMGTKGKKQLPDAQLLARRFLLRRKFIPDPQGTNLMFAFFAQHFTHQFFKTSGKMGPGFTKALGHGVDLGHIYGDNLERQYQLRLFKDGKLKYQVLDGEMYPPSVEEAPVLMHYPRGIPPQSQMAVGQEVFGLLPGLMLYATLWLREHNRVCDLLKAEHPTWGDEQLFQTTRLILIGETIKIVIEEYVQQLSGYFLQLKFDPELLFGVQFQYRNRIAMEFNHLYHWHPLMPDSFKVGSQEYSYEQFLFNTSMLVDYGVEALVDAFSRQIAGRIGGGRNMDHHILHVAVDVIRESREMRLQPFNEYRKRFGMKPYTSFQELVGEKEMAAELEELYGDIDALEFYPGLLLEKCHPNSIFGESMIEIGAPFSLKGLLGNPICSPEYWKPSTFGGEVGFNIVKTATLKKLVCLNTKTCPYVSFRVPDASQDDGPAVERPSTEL

IC50 (COX-1 [1]) [µM]	IC50 (COX-1 [2]) [µM]	IC50 (COX-2) [µM]	half-life [3] [h]	Compound
3 to 10	> 30	< 0.37	–	CCC1(C)OC(=O)C(c2ccccc2)=C1c1ccc(S(C)(=O)=O)cc1 (stereo not drawn) [a, 5-ethyl-5-methyl-4-[4-(methylsulfonyl)phenyl]-3-phenyl-2,5-dihydro-2-furanone]
> 10	> 30	0.48	–	CCC1(C)OC(=O)C(c2cccc(F)c2)=C1c1ccc(S(C)(=O)=O)cc1 (stereo not drawn) [f, 5-ethyl-3-(3-fluorophenyl)-5-methyl-4-[4-(methylsulfonyl)phenyl]-2,5-dihydro-2-furanone]
10 to 30	> 30	–	> 24	CC1(C)OC(=O)C(c2ccc(F)c(F)c2)=C1c1ccc(S(C)(=O)=O)cc1 [Compound T3-2, 3-(3,4-difluorophenyl)-5,5-dimethyl-4-[4-(methylsulfonyl)phenyl]-2,5-dihydro-2-furanone, reference compound]
